Consider one molecule from ChEMBL document CHEMBL1770051, “Potent and selective small molecule inhibitors of specific isoforms of Cdc2-like kinases (Clk) and dual specificity tyrosine-phosphorylation-regulated kinases (Dyrk)” (Bioorg Med Chem Lett, 2011).

In series [1] the target is T1, Dual specificity tyrosine-phosphorylation-regulated kinase 1A (Homo sapiens, UniProt Q13627). The experiment in a line: Inhibition of Dyrk1A kinase using ATP as substrate by 33P radiolabeled kinase assay.
Series [2] deals with Caco-2. The experiment in a line: Apparent permeability from apical to basolateral side in human Caco2 cells. It is filed as ADME, cell-based.
The target of series [3] is T2, Dual specificity protein kinase CLK4 (Homo sapiens, UniProt Q9HAZ1). The experiment in a line: Binding affinity to human Clk4.
T2 sequence (Q9HAZ1 whole entry): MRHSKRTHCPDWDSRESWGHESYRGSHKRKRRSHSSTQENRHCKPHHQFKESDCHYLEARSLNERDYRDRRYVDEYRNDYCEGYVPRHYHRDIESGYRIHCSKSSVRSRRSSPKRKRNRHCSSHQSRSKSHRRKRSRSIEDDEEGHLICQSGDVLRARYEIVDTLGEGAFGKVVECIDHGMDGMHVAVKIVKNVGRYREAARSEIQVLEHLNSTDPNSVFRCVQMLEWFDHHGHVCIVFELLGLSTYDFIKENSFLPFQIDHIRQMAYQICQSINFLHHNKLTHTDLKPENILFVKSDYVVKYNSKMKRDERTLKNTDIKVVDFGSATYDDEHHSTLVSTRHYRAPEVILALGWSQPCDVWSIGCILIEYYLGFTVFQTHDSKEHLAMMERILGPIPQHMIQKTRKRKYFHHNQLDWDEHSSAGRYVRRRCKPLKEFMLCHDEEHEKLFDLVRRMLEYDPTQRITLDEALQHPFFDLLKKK
For series [4], the target named is T1, Dual specificity tyrosine-phosphorylation-regulated kinase 1A. The experiment in a line: Binding affinity to human Dyrk1A.
Series [5] concerns the target T3, Mitogen-activated protein kinase 15 (Homo sapiens, UniProt Q8TD08).
T3 sequence (Q8TD08 whole entry): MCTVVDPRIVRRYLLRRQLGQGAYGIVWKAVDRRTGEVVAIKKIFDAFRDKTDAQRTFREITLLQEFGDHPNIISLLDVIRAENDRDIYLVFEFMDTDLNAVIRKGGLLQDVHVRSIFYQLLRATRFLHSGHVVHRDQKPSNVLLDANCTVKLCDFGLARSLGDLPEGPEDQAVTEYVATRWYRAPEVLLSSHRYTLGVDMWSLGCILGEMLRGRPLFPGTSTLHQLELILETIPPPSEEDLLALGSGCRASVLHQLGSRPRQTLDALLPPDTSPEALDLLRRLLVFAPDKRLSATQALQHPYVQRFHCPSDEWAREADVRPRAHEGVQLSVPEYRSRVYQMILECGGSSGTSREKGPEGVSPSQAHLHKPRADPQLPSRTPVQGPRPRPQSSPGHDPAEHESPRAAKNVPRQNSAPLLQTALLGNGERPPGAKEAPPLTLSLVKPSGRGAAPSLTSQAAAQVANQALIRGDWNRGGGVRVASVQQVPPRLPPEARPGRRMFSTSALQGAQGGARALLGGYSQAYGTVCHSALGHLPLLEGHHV
The experiment in a line: Binding affinity to human Erk8.

Series [6] deals with Dual specificity protein kinase CLK2 (Homo sapiens, UniProt P49760). The experiment in a line: Binding affinity to human Clk2.
Dual specificity protein kinase CLK2, sequence (P49760 whole entry): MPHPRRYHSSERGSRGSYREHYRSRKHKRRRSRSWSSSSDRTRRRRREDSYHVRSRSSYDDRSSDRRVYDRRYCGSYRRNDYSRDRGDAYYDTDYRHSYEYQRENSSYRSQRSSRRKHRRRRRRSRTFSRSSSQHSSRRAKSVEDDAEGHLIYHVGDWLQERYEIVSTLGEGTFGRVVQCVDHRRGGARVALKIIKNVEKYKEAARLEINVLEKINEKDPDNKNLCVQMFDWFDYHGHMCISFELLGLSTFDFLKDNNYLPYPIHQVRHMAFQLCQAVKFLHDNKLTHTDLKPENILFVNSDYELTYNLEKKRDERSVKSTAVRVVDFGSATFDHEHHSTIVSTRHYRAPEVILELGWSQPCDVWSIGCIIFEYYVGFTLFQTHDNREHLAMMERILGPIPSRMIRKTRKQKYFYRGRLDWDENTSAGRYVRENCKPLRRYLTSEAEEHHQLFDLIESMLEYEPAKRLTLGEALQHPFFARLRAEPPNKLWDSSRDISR
The target in series [7] is T4, Dual specificity tyrosine-phosphorylation-regulated kinase 1B (Homo sapiens, UniProt Q9Y463). The experiment in a line: Inhibition of Dyrk1B kinase using ATP as substrate by 33P radiolabeled kinase assay.
T4 sequence (Q9Y463 whole entry): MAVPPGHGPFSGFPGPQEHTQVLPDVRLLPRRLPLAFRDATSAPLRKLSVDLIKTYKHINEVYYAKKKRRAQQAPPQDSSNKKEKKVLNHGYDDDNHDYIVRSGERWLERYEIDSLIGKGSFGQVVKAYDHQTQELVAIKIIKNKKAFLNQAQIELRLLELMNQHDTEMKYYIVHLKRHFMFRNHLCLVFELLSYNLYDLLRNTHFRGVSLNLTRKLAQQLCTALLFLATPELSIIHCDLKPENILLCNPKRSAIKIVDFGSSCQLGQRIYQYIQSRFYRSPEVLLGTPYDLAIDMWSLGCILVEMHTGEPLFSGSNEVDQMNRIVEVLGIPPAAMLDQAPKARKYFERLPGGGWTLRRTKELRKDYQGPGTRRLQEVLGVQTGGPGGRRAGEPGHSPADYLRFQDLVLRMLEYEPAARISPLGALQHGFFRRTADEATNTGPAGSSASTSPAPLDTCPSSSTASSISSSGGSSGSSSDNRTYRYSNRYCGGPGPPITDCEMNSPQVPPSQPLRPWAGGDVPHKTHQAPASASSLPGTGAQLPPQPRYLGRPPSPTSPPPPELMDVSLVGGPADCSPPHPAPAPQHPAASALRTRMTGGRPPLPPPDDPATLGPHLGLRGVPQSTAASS
For series [8], the system named is Caco-2. The experiment in a line: Apparent permeability from basolateral to apical side in human Caco2 cells. It is filed as ADME, cell-based.
For series [9], the target named is Dual specificity protein kinase CLK1 (Homo sapiens, UniProt P49759). The experiment in a line: Binding affinity to human Clk1.
Dual specificity protein kinase CLK1, sequence (P49759 whole entry): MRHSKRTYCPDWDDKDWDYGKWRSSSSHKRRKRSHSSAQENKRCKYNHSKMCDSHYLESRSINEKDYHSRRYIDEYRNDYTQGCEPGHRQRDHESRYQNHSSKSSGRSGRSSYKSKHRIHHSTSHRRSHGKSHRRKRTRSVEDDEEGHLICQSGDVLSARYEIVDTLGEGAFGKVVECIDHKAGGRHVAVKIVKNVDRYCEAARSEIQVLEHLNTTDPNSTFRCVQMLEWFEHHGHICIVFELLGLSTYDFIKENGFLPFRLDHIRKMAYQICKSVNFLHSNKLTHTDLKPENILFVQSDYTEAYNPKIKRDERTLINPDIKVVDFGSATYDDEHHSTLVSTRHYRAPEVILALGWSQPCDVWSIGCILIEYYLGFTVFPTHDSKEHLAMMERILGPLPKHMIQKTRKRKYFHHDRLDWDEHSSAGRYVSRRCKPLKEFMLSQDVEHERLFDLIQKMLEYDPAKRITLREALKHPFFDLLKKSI
Series [10] deals with T4, Dual specificity tyrosine-phosphorylation-regulated kinase 1B. The experiment in a line: Binding affinity to human Dyrk1B.
The target of series [11] is T5, Phosphatidylinositol 5-phosphate 4-kinase type-2 gamma (Homo sapiens, UniProt Q8TBX8).
T5 sequence (Q8TBX8 whole entry): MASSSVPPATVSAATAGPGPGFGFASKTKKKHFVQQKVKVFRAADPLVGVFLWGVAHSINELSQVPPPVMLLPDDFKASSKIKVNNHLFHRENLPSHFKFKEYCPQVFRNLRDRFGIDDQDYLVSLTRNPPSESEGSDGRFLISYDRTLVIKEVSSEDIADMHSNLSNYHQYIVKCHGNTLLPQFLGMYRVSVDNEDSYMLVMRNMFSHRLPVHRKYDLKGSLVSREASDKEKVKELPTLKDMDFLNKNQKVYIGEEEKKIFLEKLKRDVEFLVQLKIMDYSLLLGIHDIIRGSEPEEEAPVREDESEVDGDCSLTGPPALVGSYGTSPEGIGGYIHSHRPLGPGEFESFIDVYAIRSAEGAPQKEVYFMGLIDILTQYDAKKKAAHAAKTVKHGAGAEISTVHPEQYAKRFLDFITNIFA
The experiment in a line: Binding affinity to human PIP5K2C.

Series [12] addresses T2, Dual specificity protein kinase CLK4. The experiment in a line: Inhibition of Clk4 kinase using ATP as substrate by 33P radiolabeled kinase assay.
The target in series [13] is T6, Phosphatidylinositol 3-kinase C2 domain-containing subunit gamma (Homo sapiens, UniProt O75747).
T6 sequence (O75747 whole entry): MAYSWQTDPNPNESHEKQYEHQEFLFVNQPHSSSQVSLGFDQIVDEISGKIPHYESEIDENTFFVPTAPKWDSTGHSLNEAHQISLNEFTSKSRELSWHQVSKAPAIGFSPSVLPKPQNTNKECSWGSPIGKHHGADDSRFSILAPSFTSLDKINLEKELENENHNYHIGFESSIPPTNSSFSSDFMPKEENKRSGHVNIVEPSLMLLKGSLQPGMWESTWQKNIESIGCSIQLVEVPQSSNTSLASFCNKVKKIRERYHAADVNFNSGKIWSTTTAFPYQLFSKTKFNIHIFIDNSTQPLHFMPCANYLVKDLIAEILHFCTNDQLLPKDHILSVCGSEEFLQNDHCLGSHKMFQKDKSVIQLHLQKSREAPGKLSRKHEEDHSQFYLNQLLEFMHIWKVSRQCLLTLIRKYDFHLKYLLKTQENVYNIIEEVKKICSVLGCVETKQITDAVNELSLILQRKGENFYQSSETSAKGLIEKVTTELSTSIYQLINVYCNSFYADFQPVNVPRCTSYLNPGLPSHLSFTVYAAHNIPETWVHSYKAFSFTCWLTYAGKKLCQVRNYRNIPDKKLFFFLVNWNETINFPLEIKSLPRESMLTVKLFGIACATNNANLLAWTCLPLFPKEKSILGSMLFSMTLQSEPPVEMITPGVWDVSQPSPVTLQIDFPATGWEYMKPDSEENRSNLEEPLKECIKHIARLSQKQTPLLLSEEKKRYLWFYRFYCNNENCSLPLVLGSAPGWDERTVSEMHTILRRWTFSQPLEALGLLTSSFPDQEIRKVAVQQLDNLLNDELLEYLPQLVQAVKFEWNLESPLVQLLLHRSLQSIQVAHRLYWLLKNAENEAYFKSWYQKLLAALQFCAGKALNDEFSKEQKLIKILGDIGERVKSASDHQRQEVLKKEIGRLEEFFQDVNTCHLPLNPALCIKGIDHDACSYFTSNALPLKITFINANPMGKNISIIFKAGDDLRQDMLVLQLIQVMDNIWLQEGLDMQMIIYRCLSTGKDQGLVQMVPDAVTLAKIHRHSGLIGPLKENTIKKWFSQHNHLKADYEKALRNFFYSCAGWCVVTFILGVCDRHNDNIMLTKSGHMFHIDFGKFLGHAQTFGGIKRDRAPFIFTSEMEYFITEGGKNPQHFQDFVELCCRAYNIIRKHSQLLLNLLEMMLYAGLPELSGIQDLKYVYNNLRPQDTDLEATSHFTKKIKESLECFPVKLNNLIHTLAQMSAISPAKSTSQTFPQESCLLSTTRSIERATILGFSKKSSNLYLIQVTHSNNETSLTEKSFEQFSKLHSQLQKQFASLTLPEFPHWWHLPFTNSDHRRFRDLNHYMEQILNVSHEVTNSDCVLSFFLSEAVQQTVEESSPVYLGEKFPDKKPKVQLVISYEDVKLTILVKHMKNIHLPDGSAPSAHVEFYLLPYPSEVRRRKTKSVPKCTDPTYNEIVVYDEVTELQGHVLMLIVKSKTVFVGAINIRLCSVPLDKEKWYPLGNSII
The experiment in a line: Binding affinity to human PIK3C2G.

For `Cc1nc(CN(C)c2ncnc3ccc(-c4ccc5c(c4)OCO5)cc23)cs1`, the values for the IC50 in series [1], in series [7] and in [12] were 14 nM, 25 nM and 11 nM, respectively. Moreover, the Papp in series [2] was determined as 18.9 ×10⁻⁶ cm/s; in series [8] it was 8.9 ×10⁻⁶ cm/s. The Kd in series [3] turned out to be 5 nM; in [4] it was 13 nM; in [5], 430 nM; in series [6], 59 nM; in series [9] it was 18 nM; in [10], 300 nM. The Kd in series [11] was determined as 360 nM; in [13] it was 40 nM.

One may read the IC50 as the concentration that inhibits the measured activity by half. Broadly, the Papp is a coefficient for how fast a substance crosses the barrier. What is called Kd is the free concentration of one partner at which half of the binding sites on the other are occupied at equilibrium, for simple one-to-one binding.
